According to patent publication US20260001888A1, “PYRAZOLOPYRIMIDINE PDE9 INHIBITORS” (Merck Sharp & Dohme LLC, priority 2018, published 2026):

Target: Human PDE9 (PDE9A2) (Homo sapiens (Human), UniProt O76083)
Assay: PDE9 IMAP fluorescence polarization (FP) inhibition assay
Assay type: biochemical
Details: apparent inhibition constant; human PDE9A2, FAM-cGMP substrate 50 nM, room temperature
Protocol: The activity of the compounds in accordance with the present invention as PDE9 inhibitors may be readily determined without undue experimentation using a fluorescence polarization (FP) methodology that is well known in the art (Huang, W., et al., J. Biomol Screen, 2002, 7:215).
In a typical experiment the PDE9 inhibitory activity of the compounds of the present invention was determined in accordance with the following experimental method.
Human PDE9 (PDE9A2, GenBank Accession No. NM_001001567), full length with N-terminal GST tag, was purchased from BPS Bioscience. The fluorescence polarization assay for cyclic nucleotide phosphodiesterases was performed using an IMAP® FP kit supplied by Molecular Devices, Sunnyvale, CA (product #R8139). IMAP® technology has been applied previously to phosphodiesterase assays (Huang, W., et al., J. Biomol Screen, 2002, 7:215). Assays were performed at room temperature in 384-well microtiter plates with an incubation volume of 20.2 μL. Solutions of test compounds were prepared in DMSO and serially diluted with DMSO to yield 8 μL of each of 10 solutions differing by 3-fold in concentration, at 32 serial dilutions per plate. 100% inhibition is determined using a known PDE9 inhibitor, such as 1-(2-chlorophenyl)-6-[(2R)-3,3,3-trifluoro-2-methylpropyl]-1,5-dihydro-4H-pyrazolo[3,4-d]pyrimidine-4-one (BAY 73-6691) (Wunder et al, Mol. Pharmacol., 2005, 68 (6): 1775-81), (6-[(3S,4S)-4-methyl-1-(pyrimidin-2-ylmethyl) pyrrolidin-3-yl]-1-(tetrahydro-2H-pyran-4-yl)-1,5-dihydro-4H-pyrazolo[3,4-d]pyrimidin-4-one (PF-04447943) (Wager et al., ACS Chemical Neuroscience, 2010, 1:435-449). 0% of inhibition is determined by using DMSO (1% final concentrations). A Labcyte Echo 555 (Labcyte, Sunnyvale, CA) is used to dispense 200 nL from each well of the titration plate to the 384 well assay plate. Human PDE9A2 membrane preps were diluted to 1 ng/ml. […] PDE9 enzyme mix and compounds were mixed and incubated at room temperature for 30 min. Following which, FAMcGMP substrate was added, shaken and incubated for an additional 60 min at room temperature. The final concentration of human PDE9 membrane preparations were 0.5 ng/ml. The final concentration of FAM-cGMP was 50 nM. After the incubation period, the enzymatic reaction was stopped by addition of binding solution (IMAP-FP, Molecular Devices, comprised of 80% Solution A, 20% Solution B and a 1:600 dilution of binding reagent) to each well. The plates were shaken then incubated at room temperature for 1 h prior to determining the fluorescence polarization (mP) using a Perkin Elmer En Vision™ plate reader (Waltham, MA).
Fluorescence polarization (mP) was calculated from the parallel(S) and perpendicular (P) fluorescence of each sample well and the analogous values for the median control well, containing only substrate (So and Po), using the following equation: […]
Dose-inhibition profiles for each compound were characterized by fitting the mP data to a four-parameter equation given below. The apparent inhibition constant (KI), the maximum inhibition at the low plateau relative to “100% Inhibition Control” (Imax; e.g. 1=>same as this control), the minimum inhibition at the high plateau relative to the “0% Inhibition Control” (Imin, e.g. 0=>same as the no drug control) and the Hill slope (nH) are determined by a non-linear least squares fitting of the mP values as a function of dose of the compound using an in-house software based on the procedures described by Mosser et al., JALA, 2003, 8:54-63, using the following equation: […]
An apparent (Km) for FAM-labeled […] of 150 nM was determined in separate experiments through simultaneous variation of substrate and selected drug concentrations.

Sequence of Human PDE9 (PDE9A2) (O76083 other isoform, or with tags, fused parts or gaps): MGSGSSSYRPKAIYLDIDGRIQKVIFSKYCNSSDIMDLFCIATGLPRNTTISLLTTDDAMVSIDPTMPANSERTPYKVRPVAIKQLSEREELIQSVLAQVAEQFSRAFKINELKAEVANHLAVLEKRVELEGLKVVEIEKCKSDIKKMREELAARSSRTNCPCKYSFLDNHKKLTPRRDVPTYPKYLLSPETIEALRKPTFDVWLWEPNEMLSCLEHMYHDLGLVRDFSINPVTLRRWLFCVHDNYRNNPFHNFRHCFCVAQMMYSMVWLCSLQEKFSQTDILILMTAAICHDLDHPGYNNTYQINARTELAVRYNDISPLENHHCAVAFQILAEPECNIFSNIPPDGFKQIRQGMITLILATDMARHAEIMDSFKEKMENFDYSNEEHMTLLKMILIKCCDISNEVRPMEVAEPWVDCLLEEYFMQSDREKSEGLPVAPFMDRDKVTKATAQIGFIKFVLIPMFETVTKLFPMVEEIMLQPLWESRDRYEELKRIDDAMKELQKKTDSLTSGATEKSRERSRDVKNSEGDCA

| Ki [nM] | SMILES |
| --- | --- |
| 0.6 | CC(C)C(c1ncccn1)N(C)c1nc2c(c(C#N)nn2C(C)c2ccc(C(F)(F)F)nc2)c(=O)[nH]1 (single isomer, unassigned) [Example 23, 6-[methyl-(2-methyl-1-pyrimidin-2-yl-propyl)amino]-4-oxo-1-[1-[6-(trifluoromethyl)-3-pyridyl]ethyl]-5H-pyrazolo[3,4-d]pyrimidine-3-carbonitrile] |
| 69.2 | CC(C)C(c1ncccn1)N(C)c1nc2c(c(C#N)nn2C(C)c2ccc(C(F)(F)F)nc2)c(=O)[nH]1 (single isomer, unassigned) [Example 24, 6-[methyl-(2-methyl-1-pyrimidin-2-yl-propyl)amino]-4-oxo-1-[1-[6-(trifluoromethyl)-3-pyridyl]ethyl]-5H-pyrazolo[3,4-d]pyrimidine-3-carbonitrile] |
| 4.08 | CC(c1ccc(C(F)(F)F)nc1)n1nc(C#N)c2c(=O)[nH]c(N(C)C(c3ncccn3)C3CC3)nc21 (single isomer, unassigned) [Example 25, 6-[[cyclopropyl(pyrimidin-2-yl)methyl]-methyl-amino]-4-oxo-1-[1-[6-(trifluoromethyl)-3-pyridyl]ethyl]-5H-pyrazolo[3,4-d]pyrimidine-3-carbonitrile] |
| 52.9 | CC(c1ccc(C(F)(F)F)nc1)n1nc(C#N)c2c(=O)[nH]c(N(C)C(c3ncccn3)C3CC3)nc21 (single isomer, unassigned) [Example 26, 6-[[cyclopropyl(pyrimidin-2-yl)methyl]-methyl-amino]-4-oxo-1-[1-[6-(trifluoromethyl)-3-pyridyl]ethyl]-5H-pyrazolo[3,4-d]pyrimidine-3-carbonitrile] |
| 6.67 | CC(c1ccc(C(F)(F)F)nc1)n1nc(C#N)c2c(=O)[nH]c(N(C)C(c3ncccn3)C3CC3)nc21 (single isomer, unassigned) [Example 27, 6-[[cyclopropyl(pyrimidin-2-yl)methyl]-methyl-amino]-4-oxo-1-[1-[6-(trifluoromethyl)-3-pyridyl]ethyl]-5H-pyrazolo[3,4-d]pyrimidine-3-carbonitrile] |
| 20.3 | CC(c1ccc(C(F)(F)F)nc1)n1nc(C#N)c2c(=O)[nH]c(N(C)C(c3ncccn3)C3CC3)nc21 (single isomer, unassigned) [Example 28, 6-[[cyclopropyl(pyrimidin-2-yl)methyl]-methyl-amino]-4-oxo-1-[1-[6-(trifluoromethyl)-3-pyridyl]ethyl]-5H-pyrazolo[3,4-d]pyrimidine-3-carbonitrile] |
| 8.96 | CC(c1ccc(C(F)(F)F)nc1)n1nc(C#N)c2c(=O)[nH]c(N(C)C(c3ncccn3)C3CCC3)nc21 (single isomer, unassigned) [Example 29, 6-[[cyclobutyl(pyrimidin-2-yl)methyl]-methyl-amino]-4-oxo-1-[1-[6-(trifluoromethyl)-3-pyridyl]ethyl]-5H-pyrazolo[3,4-a]pyrimidine-3-carbonitrile] |

Further lines, the compound ahead of its results:

| SMILES | Ki [nM] |
| --- | --- |
| CCC(c1ncccn1)N(C)c1nc2c(c(C#N)nn2C(C)c2ccc(C(F)(F)F)nc2)c(=O)[nH]1 (single isomer, unassigned) [Example 11, 6-[methyl(1-pyrimidin-2-ylpropyl)amino]-4-oxo-1-[1-[6-(trifluoromethyl)-3-pyridyl]ethyl]-5H-pyrazolo[3,4-d]pyrimidine-3-carbonitrile] | 24.5 |
| CCC(c1ncccn1)N(C)c1nc2c(c(C#N)nn2C(C)c2ccc(C(F)(F)F)nc2)c(=O)[nH]1 (single isomer, unassigned) [Example 12, 6-[methyl(1-pyrimidin-2-ylpropyl)amino]-4-oxo-1-[1-[6-(trifluoromethyl)-3-pyridyl]ethyl]-5H-pyrazolo[3,4-d]pyrimidine-3-carbonitrile] | 39 |
| CCC(c1ncccn1)N(C)c1nc2c(c(C#N)nn2C(C)c2ccc(C(F)(F)F)cc2)c(=O)[nH]1 (single isomer, unassigned) [Example 13, 6-[methyl(1-pyrimidin-2-ylpropyl)amino]-4-oxo-1-[1-[4-(trifluoromethyl)phenyl]ethyl]-5H-pyrazolo[3,4-d]pyrimidine-3-carbonitrile] | 5.2 |
| CCC(c1ncccn1)N(C)c1nc2c(c(C#N)nn2C(C)c2ccc(C(F)(F)F)cc2)c(=O)[nH]1 (single isomer, unassigned) [Example 14, 6-[methyl(1-pyrimidin-2-ylpropyl)amino]-4-oxo-1-[1-[4-(trifluoromethyl)phenyl]ethyl]-5H-pyrazolo[3,4-d]pyrimidine-3-carbonitrile] | 0.01 |
| CCC(c1ncccn1)N(C)c1nc2c(c(C#N)nn2C(C)c2ccc(C(F)(F)F)cc2)c(=O)[nH]1 (single isomer, unassigned) [Example 15, 6-[methyl(1-pyrimidin-2-ylpropyl)amino]-4-oxo-1-[1-[4-(trifluoromethyl)phenyl]ethyl]-5H-pyrazolo[3,4-d]pyrimidine-3-carbonitrile] | 2.82 |
| CCC(c1ncccn1)N(C)c1nc2c(c(C#N)nn2C(C)c2ccc(C(F)(F)F)cc2)c(=O)[nH]1 (single isomer, unassigned) [Example 16, 6-[methyl(1-pyrimidin-2-ylpropyl)amino]-4-oxo-1-[1-[4-(trifluoromethyl)phenyl]ethyl]-5H-pyrazolo[3,4-d]pyrimidine-3-carbonitrile] | 11.1 |
| CCC(c1ncc(C(F)F)cn1)N(C)c1nc2c(c(C#N)nn2C(C)c2ccc(C(F)(F)F)nc2)c(=O)[nH]1 (single isomer, unassigned) [Example 17, 6-[1-[5-(difluoromethyl)pyrimidin-2-yl]propyl-methyl-amino]-4-oxo-1-[1-[6-(trifluoromethyl)-3-pyridyl]ethyl]-5H-pyrazolo[3,4-d]pyrimidine-3-carbonitrile] | 0.01 |
| CCC(c1ncc(C(F)F)cn1)N(C)c1nc2c(c(C#N)nn2C(C)c2ccc(C(F)(F)F)nc2)c(=O)[nH]1 (single isomer, unassigned) [Example 18, 6-[1-[5-(difluoromethyl)pyrimidin-2-yl]propyl-methyl-amino]-4-oxo-1-[1-[6-(trifluoromethyl)-3-pyridyl]ethyl]-5H-pyrazolo[3,4-d]pyrimidine-3-carbonitrile] | 2.07 |
| CCC(c1ncc(C(F)F)cn1)N(C)c1nc2c(c(C#N)nn2C(C)c2ccc(C(F)(F)F)nc2)c(=O)[nH]1 (single isomer, unassigned) [Example 19, 6-[1-[5-(difluoromethyl)pyrimidin-2-yl]propyl-methyl-amino]-4-oxo-1-[1-[6-(trifluoromethyl)-3-pyridyl]ethyl]-5H-pyrazolo[3,4-d]pyrimidine-3-carbonitrile] | 7.36 |
| CCC(c1ncc(C(F)F)cn1)N(C)c1nc2c(c(C#N)nn2C(C)c2ccc(C(F)(F)F)nc2)c(=O)[nH]1 (single isomer, unassigned) [Example 20, 6-[1-[5-(difluoromethyl)pyrimidin-2-yl]propyl-methyl-amino]-4-oxo-1-[1-[6-(trifluoromethyl)-3-pyridyl]ethyl]-5H-pyrazolo[3,4-d]pyrimidine-3-carbonitrile] | 1.57 |
| CC(C)C(c1ncccn1)N(C)c1nc2c(c(C#N)nn2C(C)c2ccc(C(F)(F)F)nc2)c(=O)[nH]1 (single isomer, unassigned) [Example 21, 6-[methyl-(2-methyl-1-pyrimidin-2-yl-propyl)amino]-4-oxo-1-[1-[6-(trifluoromethyl)-3-pyridyl]ethyl]-5H-pyrazolo[3,4-d]pyrimidine-3-carbonitrile] | 15.2 |
| CC(C)C(c1ncccn1)N(C)c1nc2c(c(C#N)nn2C(C)c2ccc(C(F)(F)F)nc2)c(=O)[nH]1 (single isomer, unassigned) [Example 22, 6-[methyl-(2-methyl-1-pyrimidin-2-yl-propyl)amino]-4-oxo-1-[1-[6-(trifluoromethyl)-3-pyridyl]ethyl]-5H-pyrazolo[3,4-d]pyrimidine-3-carbonitrile] | 6.5 |
